How the values were obtained:
[1] = tested on: involuted ventral prostate; assay: testosterone induced regrowth of the involuted ventral prostate of castrated male rats; assay type: in vivo, rat; conditions: castrated + testosterone implant, 10 days, N = 5 rats/group
Procedure: Certain combinations of the invention were tested for their in vivo potency in inhibiting steroid 5-α-reductase activity.
(§1) When male rats are castrated and allowed to go untreated for 1 month, the ventral prostates involutes to approximately 10% of its original total cell number. If exogeneous testosterone is given to these castrated rats to restore the physiological serum level of testosterone, the involuted ventral prostate rapidly proliferates restoring its original cell content within 2-3 weeks. Using the ability to inhibit this testosterone induced regrowth of the rat ventral prostate, the efficacy and potency of twice daily oral administering of the "competitive" inhibitor and the "uncompetitive" inhibitor individually and in combination were compared.
(§2) To perform these experiments, a total of 50 male Sprague Dawley rats (From Harlan Sprague-Dawley, Inc.) of 250-300 gm starting weight were used. Forty-five of these animals were castrated and allowed to go untreated for 1 month to produce maximal ventral prostatic and seminal vesicle involution. After this 1 month period, 40 of the 45 castrated animals were implanted subcutaneously in the flank with a 2.5 cm long testosterone filled silastic capsule. The 50 animals were set up in 10 groups as follows:
(§3) The animals were administered the 5-α-reductase inhibiting compounds twice a day (BID) for 10 consecutive days. This test compound was dissolved in propylene glycol and diluted in normal saline. At the end of the treatment period blood was collected from the animals and then they were sacrificed, the ventral prostrates were excised and weighed, and DHT levels were measured by the following procedure.
Prostate tissue was excised, trimmed, weighed, minced and washed with phosphate buffer. The tissue then was homogenized in phosphate buffer and extracted by addition of ethyl acetate and mixing on an orbital mixer for forty-five minutes. The ethyl acetate was evaporated, the residue was reconstituted in ethanol, and was centrifuge filtered using […] filter paper. The components then were separated using reverse-phase HPLC collecting the DHT fraction. The fraction was reduced to dryness and reconstituted in standard commercial DHT assay buffer. DHT levels then were measured using standard techniques such as radioimmunoassay.

seminal vesicle = assay: testosterone induced regrowth of the involuted seminal vesicle of castrated male rats; assay type: in vivo, rat; conditions: castrated + testosterone implant, 10 days, N = 5 rats/group
Text: as §1, §2, §3

steroid 5-α-reductase = assay: kinetic mechanism of inhibition versus testosterone (competitive / uncompetitive); assay type: biochemical; conditions: competitive = binds E-NADPH; uncompetitive = binds E-NADP+
Text: Dead-end inhibitors of bisubstrate enzymes which follow ordered kinetic mechanisms can associate to one or more existing enzyme species. With steroid 5-α-reductase, enzyme forms to which such a steroidal-inhibitor might bind would include free enzyme, E, and enzyme binary complexes with cofactor, E-NADPH and E-NADP^+.
The response of the velocity of enzyme catalysis with varying concentrations of testosterone in the presence of an inhibitor that binds to the E-NADPH complex can be described by equation 1; this model is denoted as competitive inhibition versus the variable substrate, in this case testosterone.
v=VM A/[Ka (1+I/Kis)+A] (1)
v=VM A/[Ka +A(1+K/Kii)] (2)
The results of these analyses are typically expressed in double reciprocal plots: 1/velocity versus 1/[testosterone].

[2] = tested on: involuted ventral prostate; conditions: Stoner, et al. (1987) Endocrinology 120:774; cited from earlier work

| Structure (SMILES) | Ventral Prostate DNA (μg/gland) ([1]; BID 12.5 mg/kg oral) | Ventral Prostate weight (mg/gland) ([1]; BID 12.5 mg/kg oral) | Ventral Prostate DNA (μg/gland) ([1]; BID 25 mg/kg oral) | Ventral Prostate weight (mg/gland) ([1]; BID 25 mg/kg oral) | Ventral Prostate DNA (μg/gland) ([1]; BID 50 mg/kg oral) | Ventral Prostate weight (mg/gland) ([1]; BID 50 mg/kg oral) | Seminal Vesicle DNA (μg/gland) (seminal vesicle; BID 12.5 mg/kg oral) | Seminal Vesicle weight (mg/gland) (seminal vesicle; BID 12.5 mg/kg oral) | Seminal Vesicle DNA (μg/gland) (seminal vesicle; BID 25 mg/kg oral) | Seminal Vesicle weight (mg/gland) (seminal vesicle; BID 25 mg/kg oral) | Seminal Vesicle DNA (μg/gland) (seminal vesicle; BID 50 mg/kg oral) | Seminal Vesicle weight (mg/gland) (seminal vesicle; BID 50 mg/kg oral) | mechanism of inhibition versus testosterone (steroid 5-α-reductase) | plateau dose-response effect on prostate weight reported in other studies [2] |
| --- | --- | --- | --- | --- | --- | --- | --- | --- | --- | --- | --- | --- | --- | --- |
| CC(C)(C)NC(=O)[C@H]1CC[C@H]2[C@@H]3CC=C4C=C(C(=O)O)CC[C@]4(C)[C@H]3CC[C@]12C [compound C, N-t-butyl-androst-3,5-diene-17β-carboxamide-3-carboxylic acid] | 359 ± 36 μg/gland | 154 ± 22 mg/gland | 383 ± 29 μg/gland | 143 ± 17 mg/gland | 316 ± 52 μg/gland | 147 ± 15 mg/gland | 851 ± 47 μg/gland | 158 ± 15 mg/gland | 890 ± 58 μg/gland | 170 ± 19 mg/gland | 855 ± 63 μg/gland | 159 ± 20 mg/gland | uncompetitive inhibitor |  |
| CC(C)(C)NC(=O)[C@H]1CC[C@H]2[C@@H]3CC[C@H]4NC(=O)C=C[C@]4(C)[C@H]3CC[C@]12C [compound A, N-t-butyl-5-α-androst-1-ene-4-aza-17β-carboxamide-3-one] | 289 ± 17 μg/gland | 71 ± 11 mg/gland | 290 ± 25 μg/gland | 55 ± 7 mg/gland | 284 ± 19 μg/gland | 62 ± 7 mg/gland | 692 ± 51 μg/gland | 118 ± 5 mg/gland | 708 ± 72 μg/gland | 108 ± 10 mg/gland | 698 ± 39 μg/gland | 108 ± 7 mg/gland | competitive inhibitor | plateau dose-response effect |
| CC(C)N(C(=O)[C@H]1CC[C@H]2[C@@H]3CC=C4C=C(C(=O)O)CC[C@]4(C)[C@H]3CC[C@]12C)C(C)C [compound B, N,N-diisopropyl-androst-3,5-diene-17β-carboxamide-3-carboxylic acid] |  |  |  |  |  |  |  |  |  |  |  |  | uncompetitive inhibitor |  |

From patent US5516768A, “Uncompetitive inhibition of steroid and 5α-reductose” (priority 1990, dated 1996)
